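Dose response: 5 concentrations. Exposure: 48 h. Format: 96-well plates. Endpoint: linear interpolation; highest concentration if not reached. TGI: concentration producing complete growth inhibition.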
Each compound was assayed on IGROV1 ovarian (assay: DTP human tumour cell line panel, 48 h).
For `Cc1ccc(N=Nc2c(C)c(C#N)c(=S)n(C3OC(CO)C(O)C(O)C3O)c2C)cc1` (configuration not stated), the TGI was over 100 µM. With `C=C(CC[C@@H](C)[C@H]1CC[C@@]2(C)C3=C(CC[C@]12C)[C@@]1(C)CC[C@H](O)[C@@H](C)C1CC3)C(C)C` (some centres not stated) the TGI was 8.32 µM. For `C=C1CCC23CC(CC[C@@H]2[C@@]12C[C@@H](c1ccoc1)OC2=O)OC3=O` (some centres not stated), the TGI was over 100 µM. `CC(=O)OCCOCn1cnc2c(Cl)nc(Cl)nc21` was tested, and the TGI was 30.6 µM. With `CNC(=O)N1CN(c2ccccc2)C2(CCN(CCCC3(c4ccc(F)cc4)OCCO3)CC2)C1=O` the TGI was over 100 µM. For `O=C(Cc1ccccc1)N/N=C/c1ccccc1O`, the TGI was 81.8 µM. For `COc1ccc(N2C(=O)c3cc(C)cnc3S2(=O)=O)cc1`, the TGI was over 100 µM. `CC(C)=CC(=O)C[C@H]1C(=O)O[C@@H]2C[C@H]3C(C)=CC(=O)[C@@H](O)[C@]3(C)[C@H]3[C@@]4(O)OC[C@]32[C@@H]1[C@@H](C)[C@H]4O` showed a TGI of 0.941 µM. For `CC1(C)CC(=O)C(/C=N/c2nc(-c3ccccc3)cs2)=C(O)C1`, the TGI was 87.9 µM. `CCN(CC)CC(=O)O[C@]1(CC)C(=O)OCc2c1cc1n(c2=O)Cc2cc3ccccc3nc2-1` gave a TGI of 1.04 µM. With `Cn1c(=O)c2[nH]c(CCCCC(=O)O)nc2n(C)c1=O` the TGI was over 100 µM. With `N#Cc1nc(C2=C(Cl)c3ccccc3OC2)[nH]c1C#N` the TGI was over 100 µM. For `COc1ccc(-c2cc(=O)c3ccccc3[nH]2)c(OC)c1`, the TGI was over 100 µM. For `C/C=C(/C)C(=O)O[C@H]1C[C@@H]2[C@@H](O)c3occ(C)c3C[C@]2(C)[C@@H](C)C1`, the TGI was 30.8 µM. `Cc1ccc(-c2c3nc(c(-c4ccc(C)cc4)c4ccc([nH]4)c(-c4ccc(OCC5COC(C)(C)O5)cc4)c4nc(c(-c5ccc(C)cc5)c5ccc2[nH]5)C=C4)C=C3)cc1` (configuration not stated) gave a TGI of over 31.6 µM. With `CC(=NNC(=S)Nc1ccc(C)cc1)c1cccc(C(C)=NNC(=S)Nc2ccc(C)cc2)n1` the TGI was 75.4 µM. `COc1ccc(O)c(/C(C)=N/NC(=S)N(C)C)c1` gave a TGI of over 100 µM. `c1ccc(CSP234N5CCN2CCN3CCN4CC5)c(CSP234N5CCN2CCN3CCN4CC5)c1` gave a TGI of over 100 µM. `c1csc(-c2cc(-c3cccs3)c(-c3ccsc3)s2)c1` gave a TGI of over 100 µM. Work on `Cc1ccc(S(=O)(=O)OC(c2ccc(Cl)cc2Cl)C2OC(=O)c3ccccc32)cc1` (configuration not stated) yielded a TGI of over 100 µM. `CN1C2CCC1CC(CCNC(c1ccccc1)c1ccccc1)C2` (configuration not stated) was tested, and the TGI was over 100 µM. Compound `CCOP(=O)(O)C1C(CO)OC(n2ccc(=O)[nH]c2=O)C1O` (configuration not stated) has a TGI of over 100 µM. In the case of `O=C1NCCCNCCCNCCCNC(=O)c2cccc1n2`, the TGI is reported as over 100 µM. `O=C1O/C(=C(/Br)c2ccc(Cl)c(Cl)c2)c2ccccc21` gave a TGI of over 10 µM. `CSC1=N/C(=C\c2ccccc2)C(=O)N1CN1CCCCC1` gave a TGI of over 100 µM. `CCOC(=O)C(Cc1cn(S(=O)(=O)c2ccccc2)c2ccccc12)(NC(C)=O)C(=O)OCC` showed a TGI of over 100 µM.

Each compound was assayed on LOX IMVI melanoma (assay: DTP human tumour cell line panel, 48 h).
`Cc1ccc(N=Nc2c(C)c(C#N)c(=S)n(C3OC(CO)C(O)C(O)C3O)c2C)cc1` (configuration not stated) was tested, and the TGI was 45 µM. `C=C(CC[C@@H](C)[C@H]1CC[C@@]2(C)C3=C(CC[C@]12C)[C@@]1(C)CC[C@H](O)[C@@H](C)C1CC3)C(C)C` (some centres not stated) was tested, and the TGI was 2 µM. In the case of `CC(=O)OCCOCn1cnc2c(Cl)nc(Cl)nc21`, the TGI is reported as 15.8 µM. Compound `CNC(=O)N1CN(c2ccccc2)C2(CCN(CCCC3(c4ccc(F)cc4)OCCO3)CC2)C1=O` has a TGI of over 100 µM. With `O=C(Cc1ccccc1)N/N=C/c1ccccc1O` the TGI was over 100 µM. Work on `COc1ccc(N2C(=O)c3cc(C)cnc3S2(=O)=O)cc1` yielded a TGI of over 100 µM. `CC1(C)CC(=O)C(/C=N/c2nc(-c3ccccc3)cs2)=C(O)C1` was tested, and the TGI was over 100 µM. Compound `CCN(CC)CC(=O)O[C@]1(CC)C(=O)OCc2c1cc1n(c2=O)Cc2cc3ccccc3nc2-1` has a TGI of 0.177 µM. With `Cn1c(=O)c2[nH]c(CCCCC(=O)O)nc2n(C)c1=O` the TGI was over 100 µM. With `N#Cc1nc(C2=C(Cl)c3ccccc3OC2)[nH]c1C#N` the TGI was 45.6 µM. `COc1ccc(-c2cc(=O)c3ccccc3[nH]2)c(OC)c1` showed a TGI of over 100 µM. `C/C=C(/C)C(=O)O[C@H]1C[C@@H]2[C@@H](O)c3occ(C)c3C[C@]2(C)[C@@H](C)C1` showed a TGI of 32.8 µM. For `Cc1ccc(-c2c3nc(c(-c4ccc(C)cc4)c4ccc([nH]4)c(-c4ccc(OCC5COC(C)(C)O5)cc4)c4nc(c(-c5ccc(C)cc5)c5ccc2[nH]5)C=C4)C=C3)cc1` (configuration not stated), the TGI was over 31.6 µM. Compound `CC(=NNC(=S)Nc1ccc(C)cc1)c1cccc(C(C)=NNC(=S)Nc2ccc(C)cc2)n1` has a TGI of 91.7 µM. For `N#Cc1c(-c2ccccc2)cc(Nc2cccc(C(F)(F)F)c2)n2c1nc1ccccc12`, the TGI was 3.95 µM. In the case of `COc1ccc(O)c(/C(C)=N/NC(=S)N(C)C)c1`, the TGI is reported as 22.9 µM. For `c1ccc(CSP234N5CCN2CCN3CCN4CC5)c(CSP234N5CCN2CCN3CCN4CC5)c1`, the TGI was over 100 µM. `c1csc(-c2cc(-c3cccs3)c(-c3ccsc3)s2)c1` gave a TGI of over 100 µM. For `Cc1ccc(S(=O)(=O)OC(c2ccc(Cl)cc2Cl)C2OC(=O)c3ccccc32)cc1` (configuration not stated), the TGI was over 100 µM. For `CN1C2CCC1CC(CCNC(c1ccccc1)c1ccccc1)C2` (configuration not stated), the TGI was 59.8 µM. For `CCOP(=O)(O)C1C(CO)OC(n2ccc(=O)[nH]c2=O)C1O` (configuration not stated), the TGI was over 100 µM. `O=C1NCCCNCCCNCCCNC(=O)c2cccc1n2` was tested, and the TGI was over 100 µM. With `O=C1O/C(=C(/Br)c2ccc(Cl)c(Cl)c2)c2ccccc21` the TGI was over 10 µM. For `CSC1=N/C(=C\c2ccccc2)C(=O)N1CN1CCCCC1`, the TGI was over 100 µM.

The compounds below were run on MALME-3M melanoma (assay: DTP human tumour cell line panel, 48 h).
`Cc1ccc(N=Nc2c(C)c(C#N)c(=S)n(C3OC(CO)C(O)C(O)C3O)c2C)cc1` (configuration not stated) showed a TGI of 42.7 µM. In the case of `C=C(CC[C@@H](C)[C@H]1CC[C@@]2(C)C3=C(CC[C@]12C)[C@@]1(C)CC[C@H](O)[C@@H](C)C1CC3)C(C)C` (some centres not stated), the TGI is reported as 2.51 µM. With `C=C1CCC23CC(CC[C@@H]2[C@@]12C[C@@H](c1ccoc1)OC2=O)OC3=O` (some centres not stated) the TGI was over 100 µM. `CC(=O)OCCOCn1cnc2c(Cl)nc(Cl)nc21` showed a TGI of 33.3 µM. Compound `CNC(=O)N1CN(c2ccccc2)C2(CCN(CCCC3(c4ccc(F)cc4)OCCO3)CC2)C1=O` has a TGI of over 100 µM. `O=C(Cc1ccccc1)N/N=C/c1ccccc1O` showed a TGI of 66.6 µM. In the case of `COc1ccc(N2C(=O)c3cc(C)cnc3S2(=O)=O)cc1`, the TGI is reported as over 100 µM.

Reference: PubChem BioAssay (NCI)
